Assay results published in ChEMBL document CHEMBL1201862, “PubChem BioAssay data set” (2004).
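Method: 48-hour compound exposure of cells in 96-well plates, five concentrations, linear interpolation of endpoints. GI50 marks 50% less growth.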 The source made the active and inactive calls. Cut-off read from the data, not from the text of the source: active = GI50 up to about 1.1 µM and inactive = higher.

How the values were obtained:
Experiment in all cases: NCI anticancer screen, dose series, 48 h
786-0 = test system: 786-0
A498 = test system: A498
A549 = test system: A549
ACHN = test system: ACHN
BT-549 = test system: BT-549
CCRF-CEM = test system: CCRF-CEM
COLO 205 = test system: COLO 205
DU-145 = test system: DU-145
EKVX = test system: EKVX
HCC 2998 = test system: HCC 2998
HCT-116 = test system: HCT-116
HCT-15 = test system: HCT-15
HL-60 = test system: HL-60
HOP-62 = test system: HOP-62
HOP-92 = test system: HOP-92
HT-29 = test system: HT-29
Hs-578T = test system: Hs-578T
IGROV-1 = test system: IGROV-1
K562 = test system: K562
KM12 = test system: KM12
LOX IMVI = test system: LOX IMVI
M14 = test system: M14
MCF7 = test system: MCF7
MDA-MB-231 = test system: MDA-MB-231
MDA-MB-435 = test system: MDA-MB-435
MDA-N = test system: MDA-N
MOLT-4 = test system: MOLT-4
Malme-3M = test system: Malme-3M
NCI-H226 = test system: NCI-H226
NCI-H23 = test system: NCI-H23
NCI-H460 = test system: NCI-H460
NCI/ADR-RES = test system: NCI/ADR-RES
OVCAR-3 = test system: OVCAR-3
OVCAR-4 = test system: OVCAR-4
OVCAR-5 = test system: OVCAR-5
OVCAR-8 = test system: OVCAR-8
PC-3 = test system: PC-3
RPMI-8226 = test system: RPMI-8226
SF-295 = test system: SF-295
SF-539 = test system: SF-539
SK-MEL-28 = test system: SK-MEL-28
SK-MEL-5 = test system: SK-MEL-5
SN12C = test system: SN12C
SNB-19 = test system: SNB-19
SR = test system: SR
SW-620 = test system: SW-620
TK-10 = test system: TK-10
U-251 = test system: U-251
UACC-257 = test system: UACC-257
UO-31 = test system: UO-31
CAKI-1 = test system: CAKI-1
NCI-H522 = test system: NCI-H522
SF-268 = test system: SF-268
SK-MEL-2 = test system: SK-MEL-2
SK-OV-3 = test system: SK-OV-3
T47D = test system: T47D
UACC-62 = test system: UACC-62
RXF 393 = test system: RXF 393
SNB-75 = test system: SNB-75

For `CC(=O)Nc1ccc(NNc2cc(=O)n(C)c(=O)[nH]2)cc1`, the GI50 (786-0) was 2.71 µM (inactive), the GI50 (A498) was 23.2 µM (inactive) and the GI50 (A549) was 19 µM (inactive). The GI50 (ACHN) was 2.91 µM (inactive), the GI50 (BT-549) was 13.1 µM (inactive) and the GI50 (CCRF-CEM) was > 10 µM (inactive). The GI50 (COLO 205) was 11.8 µM (inactive), the GI50 (DU-145) was 16 µM (inactive) and the GI50 (EKVX) was 17 µM (inactive). The GI50 (HCC 2998) was 11.4 µM (inactive), the GI50 (HCT-116) was 4.33 µM (inactive) and the GI50 (HCT-15) was 8.55 µM. For the same molecule, the GI50 (HL-60) was 2.95 µM (inactive), the GI50 (HOP-62) was 15.1 µM (inactive) and the GI50 (HOP-92) was 2 µM (inactive). The GI50 (HT-29) was 2.02 µM (inactive), the GI50 (Hs-578T) was 25.6 µM (inactive) and the GI50 (IGROV-1) was 14 µM (inactive). The GI50 (K562) was 33.3 µM (inactive), the GI50 (KM12) was 12 µM (inactive) and the GI50 (LOX IMVI) was 2.56 µM (inactive). For the same molecule, the GI50 (M14) was 8.89 µM (inactive), the GI50 (MCF7) was 5.57 µM (inactive) and the GI50 (MDA-MB-231) was 12.1 µM (inactive). The GI50 (MDA-MB-435) was 10.3 µM (inactive), the GI50 (MDA-N) was 11 µM (inactive) and the GI50 (MOLT-4) was 34.8 µM (inactive). The GI50 (Malme-3M) was 12.4 µM (inactive), the GI50 (NCI-H226) was 22.4 µM (inactive) and the GI50 (NCI-H23) was 14.7 µM (inactive). For the same molecule, the GI50 (NCI-H460) was 17.1 µM (inactive), the GI50 (NCI/ADR-RES) was 16.7 µM (inactive) and the GI50 (OVCAR-3) was 2.68 µM (inactive). For the same molecule, the GI50 (OVCAR-4) was 10.2 µM (inactive), the GI50 (OVCAR-5) was 14.1 µM (inactive) and the GI50 (OVCAR-8) was 15.9 µM (inactive). The GI50 (PC-3) was 4 µM (inactive), the GI50 (RPMI-8226) was 2.84 µM (inactive) and the GI50 (SF-295) was 15.8 µM (inactive). The GI50 (SF-539) was 9.73 µM (inactive), the GI50 (SK-MEL-28) was 11.9 µM (inactive) and the GI50 (SK-MEL-5) was 16.7 µM (inactive). For the same molecule, the GI50 (SN12C) was 10.1 µM (inactive), the GI50 (SNB-19) was 17.7 µM (inactive) and the GI50 (SR) was 3.47 µM (inactive). The GI50 (SW-620) was 2.98 µM (inactive), the GI50 (TK-10) was 23.2 µM (inactive) and the GI50 (U-251) was 11.7 µM (inactive). For the same molecule, the GI50 (UACC-257) was 13.5 µM (inactive) and the GI50 (UO-31) was 17.2 µM (inactive).
For `Cc1ccc(Nc2c3c(c(C#N)c4nc5ccccc5n24)CCCC3)cc1`, the GI50 (786-0) was 26.7 µM (inactive), the GI50 (A549) was 12.5 µM (inactive) and the GI50 (ACHN) was 21.6 µM (inactive). For the same molecule, the GI50 (BT-549) was 35.8 µM (inactive), the GI50 (CAKI-1) was 25.4 µM (inactive) and the GI50 (CCRF-CEM) was 6.05 µM (inactive). The GI50 (COLO 205) was 18.3 µM (inactive), the GI50 (DU-145) was 52.7 µM (inactive) and the GI50 (EKVX) was 17.3 µM (inactive). For the same molecule, the GI50 (HCC 2998) was 17.6 µM (inactive), the GI50 (HCT-116) was 10.9 µM (inactive) and the GI50 (HCT-15) was 16.9 µM. For the same molecule, the GI50 (HL-60) was 5.53 µM (inactive), the GI50 (HOP-92) was 17.1 µM (inactive) and the GI50 (HT-29) was 13.6 µM (inactive). The GI50 (Hs-578T) was > 100 µM (inactive), the GI50 (IGROV-1) was 28.2 µM (inactive) and the GI50 (K562) was 4.39 µM (inactive). The GI50 (KM12) was > 100 µM (inactive), the GI50 (LOX IMVI) was 22.1 µM (inactive) and the GI50 (M14) was 21.6 µM (inactive). The GI50 (MCF7) was 9.89 µM (inactive), the GI50 (MDA-MB-231) was 22.5 µM (inactive) and the GI50 (MDA-MB-435) was 18.2 µM (inactive). The GI50 (MDA-N) was 28.7 µM (inactive), the GI50 (MOLT-4) was 3.73 µM (inactive) and the GI50 (Malme-3M) was 30.7 µM (inactive). The GI50 (NCI-H226) was 21.7 µM (inactive), the GI50 (NCI-H23) was 22.4 µM (inactive) and the GI50 (NCI-H460) was 16.9 µM (inactive). The GI50 (NCI-H522) was 14.3 µM (inactive), the GI50 (NCI/ADR-RES) was 21.3 µM (inactive) and the GI50 (OVCAR-3) was 11.1 µM (inactive). The GI50 (OVCAR-4) was 20.7 µM (inactive), the GI50 (OVCAR-5) was 34 µM (inactive) and the GI50 (OVCAR-8) was 18 µM (inactive). The GI50 (PC-3) was 6.64 µM (inactive), the GI50 (SF-268) was > 100 µM (inactive) and the GI50 (SF-295) was 13 µM (inactive). For the same molecule, the GI50 (SF-539) was 19.4 µM (inactive), the GI50 (SK-MEL-28) was 22.1 µM (inactive) and the GI50 (SK-MEL-2) was 13.1 µM (inactive). For the same molecule, the GI50 (SK-MEL-5) was 10.7 µM (inactive), the GI50 (SK-OV-3) was 38 µM (inactive) and the GI50 (SN12C) was 17.4 µM (inactive). The GI50 (SNB-19) was 38.4 µM (inactive), the GI50 (SW-620) was 15.4 µM (inactive) and the GI50 (T47D) was 13.7 µM (inactive). For the same molecule, the GI50 (TK-10) was 25.5 µM (inactive), the GI50 (U-251) was 17.5 µM (inactive) and the GI50 (UACC-257) was 17.7 µM (inactive). The GI50 (UACC-62) was 14.7 µM (inactive) and the GI50 (UO-31) was 12 µM (inactive).
In the case of `COc1cc(C23OCC(Cc4cc5c(cc42)OCO5)C3CO)cc(OC)c1OC` (stereo not drawn), the GI50 (786-0) is reported as 3.09 µM (inactive), the GI50 (A498) is reported as 5.61 µM (inactive) and the GI50 (A549) is reported as 3.48 µM (inactive). For the same molecule, the GI50 (ACHN) was 7.13 µM (inactive), the GI50 (BT-549) was 56.6 µM (inactive) and the GI50 (CAKI-1) was 5.79 µM (inactive). The GI50 (CCRF-CEM) was 2.92 µM (inactive), the GI50 (COLO 205) was 2.55 µM (inactive) and the GI50 (DU-145) was 2.64 µM (inactive). The GI50 (EKVX) was > 100 µM (inactive), the GI50 (HCC 2998) was 0.24 µM (active) and the GI50 (HCT-116) was 2.89 µM (inactive). The GI50 (HCT-15) was 0.538 µM, the GI50 (HL-60) was 2.76 µM (inactive) and the GI50 (HOP-62) was 4.34 µM (inactive). For the same molecule, the GI50 (HOP-92) was > 100 µM (inactive), the GI50 (HT-29) was 5.64 µM (inactive) and the GI50 (Hs-578T) was 18.5 µM (inactive). For the same molecule, the GI50 (IGROV-1) was 2.44 µM (inactive), the GI50 (K562) was 3.89 µM (inactive) and the GI50 (KM12) was 0.215 µM (active). For the same molecule, the GI50 (LOX IMVI) was 1.97 µM (inactive), the GI50 (M14) was 3.64 µM (inactive) and the GI50 (MCF7) was 0.21 µM (active). For the same molecule, the GI50 (MDA-MB-231) was 6.4 µM (inactive), the GI50 (MDA-MB-435) was 0.119 µM (active) and the GI50 (MDA-N) was 0.402 µM (active). The GI50 (MOLT-4) was 13.2 µM (inactive), the GI50 (Malme-3M) was 6.14 µM (inactive) and the GI50 (NCI-H226) was 3.85 µM (inactive). For the same molecule, the GI50 (NCI-H23) was 3.45 µM (inactive), the GI50 (NCI-H460) was 3.23 µM (inactive) and the GI50 (NCI-H522) was 2.22 µM (inactive). The GI50 (NCI/ADR-RES) was 1.84 µM (inactive), the GI50 (OVCAR-3) was 1.46 µM (inactive) and the GI50 (OVCAR-4) was 41.1 µM (inactive). The GI50 (OVCAR-5) was 6.81 µM (inactive), the GI50 (OVCAR-8) was 4.14 µM (inactive) and the GI50 (PC-3) was 1.85 µM (inactive). The GI50 (RXF 393) was 2.02 µM (inactive), the GI50 (SF-268) was 4.82 µM (inactive) and the GI50 (SF-295) was 0.266 µM (active). For the same molecule, the GI50 (SF-539) was 2.52 µM (inactive), the GI50 (SK-MEL-28) was > 100 µM (inactive) and the GI50 (SK-MEL-2) was 3.24 µM (inactive). For the same molecule, the GI50 (SK-MEL-5) was 6.7 µM (inactive), the GI50 (SK-OV-3) was 3.19 µM (inactive) and the GI50 (SNB-19) was 3.14 µM (inactive). The GI50 (SNB-75) was 2.23 µM (inactive), the GI50 (SR) was 0.187 µM (active) and the GI50 (SW-620) was 3.11 µM (inactive). The GI50 (TK-10) was > 24.4 µM (inactive), the GI50 (U-251) was 2.94 µM (inactive) and the GI50 (UACC-257) was > 100 µM (inactive). For the same molecule, the GI50 (UO-31) was 8.95 µM (inactive).
